Results from ChEMBL document CHEMBL2440076, “New triarylpyrazoles as broad-spectrum anticancer agents: design, synthesis, and biological evaluation” (Eur J Med Chem, 2013).

What was measured:
[1] = tested on: NCI-H226; assay: Growth inhibition of human NCI-H226 cells after 48 hrs by sulforhodamine B assay; assay type: functional; settings: NCI-H226, 48 h
[2] = tested on: HOP-92; assay: Growth inhibition of human HOP92 cells assessed as cell growth at 10 uM after 48 hrs by sulforhodamine B assay; assay type: functional; settings: HOP-92, 48 h, read-out: Activity
[3] = tested on: UACC-62; assay: Growth inhibition of human UACC62 cells after 48 hrs by sulforhodamine B assay; assay type: functional; settings: UACC-62, 48 h
[4] = tested on: SNB-19; assay: Growth inhibition of human SNB19 cells after 48 hrs by sulforhodamine B assay; assay type: functional; settings: SNB-19, 48 h
[5] = tested on: M14; assay: Growth inhibition of human M14 cells after 48 hrs by sulforhodamine B assay; assay type: functional; settings: M14, 48 h
[6] = tested on: HCT-15; assay: Growth inhibition of human HCT15 cells after 48 hrs by sulforhodamine B assay; assay type: functional; settings: HCT-15, 48 h
[7] = tested on: MOLT-4; assay: Growth inhibition of human MOLT4 cells assessed as cell growth at 10 uM after 48 hrs by sulforhodamine B assay; assay type: functional; settings: MOLT-4, 48 h, read-out: Activity
[8] = tested on: HCT-15; assay: Growth inhibition of human HCT15 cells assessed as cell growth at 10 uM after 48 hrs by sulforhodamine B assay; assay type: functional; settings: HCT-15, 48 h, read-out: Activity
[9] = tested on: OVCAR-8; assay: Growth inhibition of human OVCAR8 cells after 48 hrs by sulforhodamine B assay; assay type: functional; settings: OVCAR-8, 48 h
[10] = tested on: IGROV-1; assay: Growth inhibition of human IGROV1 cells assessed as cell growth at 10 uM after 48 hrs by sulforhodamine B assay; assay type: functional; settings: IGROV-1, 48 h, read-out: Activity
[11] = tested on: HOP-62; assay: Growth inhibition of human HOP62 cells after 48 hrs by sulforhodamine B assay; assay type: functional; settings: HOP-62, 48 h
[12] = tested on: SR; assay: Growth inhibition of human SR cells after 48 hrs by sulforhodamine B assay; assay type: functional
[13] = tested on: ACHN; assay: Growth inhibition of human ACHN cells after 48 hrs by sulforhodamine B assay; assay type: functional
[14] = tested on: Malme-3M; assay: Growth inhibition of human MALME-3M cells after 48 hrs by sulforhodamine B assay; assay type: functional
[15] = tested on: MCF7; assay: Growth inhibition of human MCF7 cells assessed as cell growth at 10 uM after 48 hrs by sulforhodamine B assay; assay type: functional; settings: MCF7, 48 h, read-out: Activity
[16] = tested on: COLO 205; assay: Growth inhibition of human COLO205 cells after 48 hrs by sulforhodamine B assay; assay type: functional; settings: COLO 205, 48 h
[17] = tested on: LOX IMVI; assay: Growth inhibition of human LOXIMVI cells after 48 hrs by sulforhodamine B assay; assay type: functional
[18] = tested on: NCI-H322M; assay: Growth inhibition of human NCI-H322M cells assessed as cell growth at 10 uM after 48 hrs by sulforhodamine B assay; assay type: functional; settings: read-out: Activity
[19] = tested on: OVCAR-4; assay: Growth inhibition of human OVCAR4 cells after 48 hrs by sulforhodamine B assay; assay type: functional; settings: OVCAR-4, 48 h
[20] = Growth inhibition of human NCI-ADR-RES cells assessed as cell growth at 10 uM after 48 hrs by sulforhodamine B assay; assay type: functional; settings: read-out: Activity
[21] = tested on: A549; assay: Growth inhibition of human A549/ATCC cells assessed as cell growth at 10 uM after 48 hrs by sulforhodamine B assay; assay type: functional; settings: A549, 48 h, read-out: Activity
[22] = tested on: HT-29; assay: Growth inhibition of human HT-29 cells assessed as cell growth at 10 uM after 48 hrs by sulforhodamine B assay; assay type: functional; settings: HT-29, 48 h, read-out: Activity
[23] = tested on: SN12C; assay: Growth inhibition of human SN12C cells after 48 hrs by sulforhodamine B assay; assay type: functional
[24] = tested on: OVCAR-4; assay: Growth inhibition of human OVCAR4 cells assessed as cell growth at 10 uM after 48 hrs by sulforhodamine B assay; assay type: functional; settings: OVCAR-4, 48 h, read-out: Activity
[25] = tested on: SF-539; assay: Growth inhibition of human SF539 cells assessed as cell growth at 10 uM after 48 hrs by sulforhodamine B assay; assay type: functional; settings: SF-539, 48 h, read-out: Activity
[26] = tested on: CCRF-CEM; assay: Growth inhibition of human CCRF-CEM cells assessed as cell growth at 10 uM after 48 hrs by sulforhodamine B assay; assay type: functional; settings: read-out: Activity
[27] = tested on: Malme-3M; assay: Growth inhibition of human MALME-3M cells assessed as cell growth at 10 uM after 48 hrs by sulforhodamine B assay; assay type: functional; settings: read-out: Activity
[28] = tested on: HCT-116; assay: Growth inhibition of human HCT116 cells after 48 hrs by sulforhodamine B assay; assay type: functional; settings: HCT-116, 48 h
[29] = tested on: NCI-H226; assay: Growth inhibition of human NCI-H226 cells assessed as cell growth at 10 uM after 48 hrs by sulforhodamine B assay; assay type: functional; settings: NCI-H226, 48 h, read-out: Activity
[30] = tested on: A498; assay: Growth inhibition of human A498 cells after 48 hrs by sulforhodamine B assay; assay type: functional, cell-based; settings: A498, 48 h
[31] = tested on: HOP-92; assay: Growth inhibition of human HOP92 cells after 48 hrs by sulforhodamine B assay; assay type: functional, cell-based; settings: HOP-92, 48 h
[32] = tested on: MDA-MB-435; assay: Growth inhibition of human MDA-MB-435 cells assessed as cell growth at 10 uM after 48 hrs by sulforhodamine B assay; assay type: functional; settings: MDA-MB-435, 48 h, read-out: Activity
[33] = tested on: SF-268; assay: Growth inhibition of human SF268 cells after 48 hrs by sulforhodamine B assay; assay type: functional; settings: SF-268, 48 h
[34] = tested on: KM12; assay: Growth inhibition of human KM12 cells assessed as cell growth at 10 uM after 48 hrs by sulforhodamine B assay; assay type: functional; settings: KM12, 48 h, read-out: Activity
[35] = tested on: LOX IMVI; assay: Growth inhibition of human LOXIMVI cells assessed as cell growth at 10 uM after 48 hrs by sulforhodamine B assay; assay type: functional; settings: read-out: Activity
[36] = read-out: LC50 (the source's name)

For `COc1cc(-c2nn(-c3cccc(NC(=O)Nc4ccc(Cl)c(Cl)c4)c3)cc2-c2ccncc2)ccc1Cl`, the GI50 [1] was 1.35 µM, the TGI [1] was over 50 µM and the CC50 [1, 36] was over 50 µM. The growth at 10 µM [2] was -34.3%, the GI50 [3] was 0.773 µM and the LC50 (50% lethal concentration) [3] was 4.49 µM. The TGI [3] was 1.86 µM, the GI50 [4] was 1.72 µM and the LC50 (concentration killing 50% of cells) [4] was over 50 µM. It also gave a TGI [4] of over 50 µM, a GI50 [5] of 0.911 µM and an LC50 (concentration killing 50% of cells) [5] of 41.2 µM. It also gave a TGI [5] of 2.69 µM, a GI50 [6] of 1.23 µM and an LC50 [6] of over 50 µM. The TGI [6] was over 50 µM, the growth at 10 µM [7] was -11.1% and the growth at 10 µM [8] was 12.7%. It also gave a GI50 [9] of 0.931 µM, a TGI [9] of 3.61 µM and a CC50 [9, 36] of over 50 µM. It also gave a growth at 10 µM [10] of 23.9%, a GI50 [11] of 1.44 µM and a TGI [11] of 4.9 µM. It also gave a CC50 [11, 36] of over 50 µM, a GI50 [12] of 0.932 µM and a TGI [12] of 2.8 µM. For the same compound, the CC50 [12, 36] was over 50 µM, the GI50 [13] was 1 µM and the TGI [13] was over 50 µM. The CC50 [13, 36] was over 50 µM, the GI50 [14] was 0.926 µM and the LC50 (concentration killing 50% of starting cells) [14] was over 50 µM. It also gave a TGI [14] of 2.42 µM, a growth at 10 µM [15] of 1.73% and a GI50 [16] of 0.937 µM. For the same compound, the LC50 (concentration killing 50% of cells) [16] was 3.14 µM, the TGI [16] was 1.72 µM and the GI50 [17] was 0.954 µM. For the same compound, the LC50 [17] was over 50 µM, the TGI [17] was 2.62 µM and the growth at 10 µM [18] was 38.8%. The GI50 [19] was 1.29 µM, the LC50 (concentration killing 50% of cells) [19] was over 50 µM and the TGI [19] was over 50 µM. It also gave a growth at 10 µM [20] of 0.32%, a growth at 10 µM [21] of -5.88% and a growth at 10 µM [22] of 1.12%. It also gave a GI50 [23] of 1.47 µM, a TGI [23] of over 50 µM and a CC50 [23, 36] of over 50 µM. It also gave a growth at 10 µM [24] of 19.8%, a growth at 10 µM [25] of 12.3% and a growth at 10 µM [26] of -7.9%. It also gave a growth at 10 µM [27] of -19.9%, a GI50 [28] of 1.21 µM and a TGI [28] of over 50 µM. The CC50 [28, 36] was over 50 µM, the growth at 10 µM [29] was 9.61% and the GI50 [30] was 1.14 µM. The IC50 [30] was 1.14 µM, the TGI [30] was 4.59 µM and the CC50 [30, 36] was over 50 µM. It also gave a GI50 [31] of 0.151 µM, an IC50 [31] of 0.15 µM and an LC50 [31] of over 50 µM. The TGI [31] was 1.47 µM, the growth at 10 µM [32] was -45.8% and the GI50 [33] was 1.51 µM. The TGI [33] was 20.3 µM, the CC50 [33, 36] was over 50 µM and the growth at 10 µM [34] was 1.3%. The growth at 10 µM [35] was 1.38%.
